Where two headings read alike, the source gives them in different places. Some results are limits rather than exact numbers.

In one assay the target is T1, AKT1 WT (Homo sapiens, UniProt P31749).
T1 construct: expressed in transfected cells; host or cells: HEK293
The experiment in a line: Live cell AKT1 WT target engagement by NanoBRET competitive probe displacement in HEK293 cells. The note with it: 2 h at 37° C., read-out: AKT1 WT IC50. In kind it is binding.

For the next assay, the target named is T2, AKT2 (Homo sapiens, UniProt P31751).
T2 construct: expressed in transfected cells; host or cells: HEK293
T2 sequence (P31751 whole entry): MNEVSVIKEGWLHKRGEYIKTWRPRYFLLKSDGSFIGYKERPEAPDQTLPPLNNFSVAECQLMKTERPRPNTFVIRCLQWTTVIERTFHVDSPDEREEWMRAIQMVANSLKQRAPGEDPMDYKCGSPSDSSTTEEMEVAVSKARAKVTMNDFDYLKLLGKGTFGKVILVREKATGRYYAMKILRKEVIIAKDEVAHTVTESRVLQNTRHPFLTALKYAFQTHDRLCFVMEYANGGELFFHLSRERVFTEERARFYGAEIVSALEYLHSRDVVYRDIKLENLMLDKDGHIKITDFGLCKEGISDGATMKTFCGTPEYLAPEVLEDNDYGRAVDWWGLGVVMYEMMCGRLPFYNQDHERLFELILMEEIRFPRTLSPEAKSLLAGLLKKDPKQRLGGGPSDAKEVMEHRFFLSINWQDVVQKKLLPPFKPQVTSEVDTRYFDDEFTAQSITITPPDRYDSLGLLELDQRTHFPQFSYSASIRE
The experiment in a line: Live cell AKT2 target engagement by NanoBRET competitive probe displacement in HEK293 cells. It is filed as binding. The note with it: 2 h at 37° C., read-out: AKT2 IC50.

The mark [1] stands for this setting: NanoBRET competitive probe displacement, live HEK293 cells.
Where [2] appears, read: NanoBRET live cell target engagement, HEK293 cells.

T1 sequence (P31749 whole entry): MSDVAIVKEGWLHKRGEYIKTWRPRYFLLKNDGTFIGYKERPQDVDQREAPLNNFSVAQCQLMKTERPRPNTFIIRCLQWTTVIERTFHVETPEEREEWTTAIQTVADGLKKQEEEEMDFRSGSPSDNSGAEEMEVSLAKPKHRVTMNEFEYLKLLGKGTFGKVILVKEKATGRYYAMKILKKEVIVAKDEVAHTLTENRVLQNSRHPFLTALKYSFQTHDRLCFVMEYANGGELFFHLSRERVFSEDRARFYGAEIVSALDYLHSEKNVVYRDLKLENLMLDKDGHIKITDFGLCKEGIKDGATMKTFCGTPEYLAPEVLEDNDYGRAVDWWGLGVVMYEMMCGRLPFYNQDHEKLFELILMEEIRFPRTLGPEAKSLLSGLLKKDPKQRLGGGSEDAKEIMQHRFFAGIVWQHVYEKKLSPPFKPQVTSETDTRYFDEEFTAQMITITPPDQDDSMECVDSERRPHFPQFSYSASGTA

Take `COc1nccc2c1CCC2N[C@H]1CCc2cc(-n3c(-c4cccnc4N)nc4ccc(-n5cccn5)nc43)ccc21` (some centres unmarked) [Compound 508]: the IC50 at AKT1 WT (setting [1]) is 75.9 nM; on AKT2 (setting [1]) it was 627 nM.

Turning to `Nc1ncccc1-c1nc2ccc(-n3cccn3)nc2n1-c1ccc2c(c1)CC[C@@H]2NC(=O)c1cccnc1CO` [Compound 152, (S)—N-(5-(2-(2-aminopyridin-3-yl)-5-(1H-pyrazol-1-yl)-3H-imidazo[4,5-b]pyridin-3-yl)-2,3-dihydro-1H-inden-1-yl)-2-(hydroxymethyl)nicotinamide], the values for the IC50 on AKT1 WT (setting [2]) and on AKT2 (setting [2]) were 61.7 nM and 984 nM, respectively.

On to `Cc1ncc(C(=O)N[C@H]2CCc3cc(-n4c(-c5cccnc5N)nc5ccc(-n6nccn6)nc54)ccc32)s1` [Compound 492], for which the IC50 on AKT1 WT (setting [1]) is 24.1 nM; at AKT2 (setting [1]) it was 2120 nM.

In the case of `Cc1ccc2nc(-c3cccnc3N)n(-c3ccc4c(c3)CC[C@@H]4NC(=O)c3ccc(C(F)F)nc3)c2n1` [Compound 146], the IC50 at AKT1 WT (setting [2]) is 508 nM; at AKT2 (setting [2]), over 10000 nM.

Take `Nc1ncccc1-c1nc2ccc(-n3nccn3)nc2n1-c1ccc2c(c1)CC[C@@H]2NC(=O)c1ccc(CO)nc1` [Compound 490]: the IC50 was 74.3 nM at AKT1 WT (setting [1]) and 3200 nM on AKT2 (setting [1]).

As to `Cn1nc(C(=O)N[C@H]2CCc3cc(-n4c(-c5cccnc5N)nc5ccc(-n6cccn6)nc54)ccc32)cc1C#N` [Compound 214], the values for the IC50 on AKT1 WT (setting [2]) and at AKT2 (setting [2]) were 56.9 nM and 2690 nM, respectively.

Take `Nc1ncccc1-c1nc2ccc(-n3cccn3)nc2n1-c1ccc2c(c1)CC[C@@H]2NC1CCN(C(=O)[C@H]2CC2(F)F)CC1` [Compound 476]: the IC50 is 209 nM on AKT1 WT (setting [1]) and over 10000 nM on AKT2 (setting [1]).

Turning to `COc1ccn(-c2ccc3nc(-c4cccnc4N)n(-c4ccc5c(c4)CC[C@@H]5NC4CCN(C(=O)C5CC5)CC4F)c3n2)n1` (some centres unmarked) [Compound 513], the results for the IC50 on AKT1 WT (setting [1]) and at AKT2 (setting [1]) were 13.9 nM and 240 nM, respectively.

On to `Nc1ncccc1-c1nc2ccc(C#C[C@H]3CCO3)nc2n1-c1ccc2c(c1)CC[C@@H]2NC(=O)c1ccc(C(F)F)nc1` [Compound 453], for which the IC50 was 28 nM at AKT1 WT (setting [1]) and 3770 nM at AKT2 (setting [1]).

Regarding `COc1cc2c(cn1)CCC2N[C@H]1CCc2cc(-n3c(-c4cccnc4N)nc4ccc(-n5cccn5)nc43)ccc21` (some centres unmarked) [Compound 510], the values for the IC50 on AKT1 WT (setting [1]) and on AKT2 (setting [1]) were 14.6 nM and 262 nM, respectively.

Turning to `Cc1ccc(C(=O)N[C@H]2CCc3cc(-n4c(-c5cccnc5N)nc5ccc(-n6cccn6)nc54)ccc32)c(C)n1` [Compound 69], the IC50 turned out to be 10.9 nM at AKT1 WT (setting [2]) and 71.6 nM on AKT2 (setting [2]).

`Nc1ncccc1-c1nc2ccc(-n3cccn3)nc2n1-c1ccc2c(c1)CC[C@@H]2NC(=O)c1ccc(F)cc1` [Compound 310]: the IC50 stood at 22.1 nM at AKT1 WT (setting [2]) and 351 nM at AKT2 (setting [2]).

Consider `Nc1ncccc1-c1nc2ccc(-n3cccn3)nc2n1-c1ccc2c(c1)CC[C@@H]2NCc1ccncc1` [Compound 142], for which the IC50 worked out at 43.8 nM at AKT1 WT (setting [2]) and 886 nM at AKT2 (setting [2]).

Consider `Nc1ncccc1-c1nc2ccc(-n3cccn3)nc2n1-c1ccc2c(c1)CC[C@@H]2NC1CCN(c2cccnc2)C1` (some centres unmarked) [Compound 472], for which the IC50 at AKT1 WT (setting [1]) turned out to be 18 nM; at AKT2 (setting [1]), 404 nM.

As for `C#Cc1cc(-n2nccn2)nc2c1nc(-c1cccnc1N)n2-c1ccc2c(c1)CC[C@@H]2NC(=O)c1ccc(C(F)F)nc1` [Compound 583], the IC50 at AKT1 WT (setting [1]) worked out at 805 nM; on AKT2 (setting [1]), 3780 nM.

Consider `Nc1ncccc1-c1nc2ccc(-n3cccn3)nc2n1-c1ccc2c(c1)CC[C@@H]2N1CCC1` [Compound 87, (S)-3-(3-(1-(azetidin-1-yl)-2,3-dihydro-1H-inden-5-yl)-5-(1H-pyrazol-1-yl)-3H-imidazo[4,5-b]pyridin-2-yl)pyridin-2-amine], for which the IC50 on AKT1 WT (setting [2]) came to 149 nM; on AKT2 (setting [2]), 1900 nM.

For the compound `Cn1c(C(=O)N[C@H]2CCc3cc(-n4c(-c5cccnc5N)nc5ccc(-n6nccn6)nc54)ccc32)cnc1C(F)F` [Compound 578], the IC50 at AKT1 WT (setting [1]) came to 74.9 nM; on AKT2 (setting [1]), 1690 nM.

In the case of `Nc1ncccc1-c1nc2ccc(-n3cccn3)nc2n1-c1ccc2c(c1)CC[C@@H]2NC1CCN(c2ccccc2)C1` (some centres unmarked) [Compound 470], the concentration for half-maximal inhibition (IC50) on AKT1 WT (setting [1]) was found to be 68.2 nM; at AKT2 (setting [1]) it was 777 nM.

Consider `Cc1ncccc1C(=O)N[C@H]1CCc2cc(-n3c(-c4cccnc4N)nc4c(F)cc(-n5cccn5)nc43)ccc21` [Compound 212], for which the IC50 at AKT1 WT (setting [2]) came out at 57.8 nM; at AKT2 (setting [2]), 158 nM.

Take `COc1ncc(C(=O)N[C@H]2CCc3cc(-n4c(-c5cccnc5N)nc5ccc(-n6cccn6)nc54)ccc32)cc1F` [Compound 162]: the IC50 was found to be 9.12 nM at AKT1 WT (setting [2]) and 37.8 nM on AKT2 (setting [2]).

For `Cc1cc(C(=O)N[C@H]2CCc3cc(-n4c(-c5cccnc5N)nc5ccc(-n6nccn6)nc54)ccc32)cnc1C(F)F` [Compound 102], the IC50 at AKT1 WT (setting [2]) stood at 31.5 nM; at AKT2 (setting [2]), 836 nM.

With `Cc1ncc(C(=O)N[C@H]2CCc3cc(-n4c(-c5cccnc5N)nc5ccc(-n6cccn6)nc54)ccc32)c(C)n1` [Compound 96], the IC50 is 18.6 nM on AKT1 WT (setting [2]) and 94.7 nM at AKT2 (setting [2]).

On to `COCCOc1ccn(-c2ccc3nc(-c4cccnc4N)n(-c4ccc5c(c4)CC[C@@H]5NC4CCN(c5ccn(C)n5)CC4)c3n2)n1` [Compound 551], for which the figures for the IC50 at AKT1 WT (setting [1]) and on AKT2 (setting [1]) were 13.1 nM and 296 nM, respectively.

Turning to `Nc1ncccc1-c1nc2ccc(-n3cccn3)nc2n1-c1ccc2c(c1)CC[C@@H]2NC(=O)c1ccc2cccn2c1` [Compound 328], the IC50 at AKT1 WT (setting [2]) was determined as 17.9 nM; at AKT2 (setting [2]), 181 nM.

Regarding `CC#Cc1ncccc1C(=O)N[C@H]1CCc2cc(-n3c(-c4cccnc4N)nc4ccc(-n5cccn5)nc43)ccc21` [Compound 211], the IC50 at AKT1 WT (setting [2]) came to 32.1 nM; on AKT2 (setting [2]), 824 nM.

Take `Nc1ncccc1-c1nc2ccc(-c3ncco3)nc2n1-c1ccc2c(c1)CC[C@@H]2n1ccnn1` [Compound 246]: the IC50 came out at 65.5 nM at AKT1 WT (setting [2]) and 2370 nM at AKT2 (setting [2]).

Take `C#Cc1ncccc1C(=O)N[C@H]1CCc2cc(-n3c(-c4cccnc4N)nc4ccc(-n5cccn5)nc43)ccc21` [Compound 113]: the results for the IC50 at AKT1 WT (setting [2]) and at AKT2 (setting [2]) were 21 nM and 537 nM, respectively.

With `Nc1ncccc1-c1nc2ccc(-n3cccn3)nc2n1-c1ccc2c(c1)CC[C@@H]2NC(=O)c1cccnc1Cl` [Compound 108], the values for the IC50 on AKT1 WT (setting [2]) and at AKT2 (setting [2]) were 18.8 nM and 223 nM, respectively.

For the compound `Cn1ccc(C#Cc2ncccc2C(=O)N[C@H]2CCc3cc(-n4c(-c5cccnc5N)nc5ccc(-n6cccn6)nc54)ccc32)n1` [Compound 181], the IC50 at AKT1 WT (setting [2]) amounted to 78.4 nM; at AKT2 (setting [2]), 3680 nM.

Turning to `Nc1ncccc1-c1nc2ccc(-n3cccn3)nc2n1-c1ccc2c(c1)CC[C@@H]2NC1Cc2cccnc2C1` (some centres unmarked) [Compound 530], the IC50 on AKT1 WT (setting [1]) is 21.2 nM; on AKT2 (setting [1]), 422 nM.

As for `CN1CC(c2cn([C@H]3CCc4cc(-n5c(-c6cccnc6N)nc6ccc(-n7cccn7)nc65)ccc43)nn2)C1` [Compound 251], the IC50 at AKT1 WT (setting [2]) is 363 nM; on AKT2 (setting [2]) it was 5810 nM.

Turning to `Cc1ccc(C(=O)N[C@H]2CCc3cc(-n4c(-c5cccnc5N)nc5ccc(-c6nc(C(F)F)cs6)nc54)ccc32)cn1` [Compound 403], the half-maximal inhibitory concentration (IC50) on AKT1 WT (setting [1]) came to 6.13 nM; on AKT2 (setting [1]), 20.1 nM.

For `Nc1ncccc1-c1nc2ccc(-n3ccc(N4CCS(=O)(=O)CC4)n3)nc2n1-c1ccc2c(c1)CC[C@@H]2NC1CCN(C(=O)C2CC2)CC1` [Compound 565], the IC50 came out at 9.86 nM on AKT1 WT (setting [1]) and 274 nM on AKT2 (setting [1]).

On to `COc1nccc(C(=O)N[C@H]2CCc3cc(-n4c(-c5cccnc5N)nc5ccc(-n6nccn6)nc54)ccc32)c1C` [Compound 380], for which the IC50 on AKT1 WT (setting [2]) is 13.9 nM; on AKT2 (setting [2]), 312 nM.

As for `Cc1ccc(C(=O)N[C@H]2CCc3cc(-n4c(-c5ccccc5)nc5ccc(-n6cccn6)nc54)ccc32)cn1` [Compound 400], the half-inhibitory concentration (IC50) on AKT1 WT (setting [1]) came out at 14.4 nM; on AKT2 (setting [1]) it was 2100 nM.

Turning to `Cc1nccnc1C(=O)N[C@H]1CCc2cc(-n3c(-c4cccnc4N)nc4ccc(-c5cccc(N6CCN(C)CC6)c5)nc43)ccc21` [Compound 269], the IC50 on AKT1 WT (setting [2]) is 3.21 nM; on AKT2 (setting [2]), 9.39 nM.

For the compound `Nc1ncccc1-c1nc2ccc(-n3cccn3)nc2n1-c1ccc2c(c1)CC[C@@H]2NC(=O)c1cncc(OC(F)(F)F)c1` [Compound 138], the IC50 at AKT1 WT (setting [2]) was determined as 13.5 nM; on AKT2 (setting [2]), 284 nM.

In the case of `Cc1cc(C(=O)N[C@H]2CCc3cc(-n4c(-c5cccnc5N)nc5ccc(-n6cccn6)nc54)ccc32)ccn1` [Compound 75], the figures for the IC50 at AKT1 WT (setting [2]) and at AKT2 (setting [2]) were 5.99 nM and 73.6 nM, respectively.

With `N#Cc1cc(-n2ccc(F)n2)nc2c1nc(-c1cccnc1N)n2-c1ccc2c(c1)CC[C@@H]2NC(=O)c1ccc(C(F)F)nc1` [Compound 329], the IC50 at AKT1 WT (setting [2]) came to 14.7 nM; on AKT2 (setting [2]), 143 nM.

`Nc1ncccc1-c1nc2ccc(-n3cccn3)nc2n1-c1ccc2c(c1)CC[C@@H]2n1cc(C2CCO2)nn1` (some centres unmarked) [Compound 354]: the IC50 stood at 39.8 nM at AKT1 WT (setting [2]) and 900 nM on AKT2 (setting [2]).

On to `Nc1ncccc1-c1nc2ccc(C#CC3CCCC3)nc2n1-c1ccc2c(c1)CC[C@@H]2NC(=O)c1ccc(C(F)F)nc1` [Compound 460], for which the IC50 at AKT1 WT (setting [1]) was 33.6 nM; on AKT2 (setting [1]), 6180 nM.

Regarding `Nc1ncccc1-c1nc2ccc(-n3cccn3)nc2n1-c1ccc2c(c1)CC[C@@H]2NC(=O)c1cccc(CO)c1` [Compound 240], the results for the IC50 on AKT1 WT (setting [2]) and on AKT2 (setting [2]) were 5.82 nM and 59.3 nM, respectively.

Consider `Cc1cc(C(=O)N[C@H]2CCc3cc(-n4c(-c5cccnc5N)nc5ccc(-n6cccn6)nc54)ccc32)nn1C(F)F` [Compound 166], for which the IC50 on AKT1 WT (setting [2]) was found to be 29.9 nM; on AKT2 (setting [2]) it was 687 nM.

Source of the values: US12624034B2, “Non-covalent modifiers of AKT1 and uses thereof” (Terremoto Biosciences, Inc., priority 2023, dated 2026).
